According to the supplement of paper PMC10307832:

Key:
Test in all cases: relative viability (nuclei count vs DMSO), 5 days (fraction); higher = more cells survive
NCI-H441 = tested on: NCI-H441
Summary of the method: (§1)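 Five library-drug doses in √10 steps were combined with a fixed anchor-drug dose, or a single drug was given alone, by pin tool to lung cancer cell lines in 1536-well plates the day after seeding. Nuclei were stained and counted after 5 days. Relative viability is the nuclei count in treated wells over that in vehicle wells, taken as the median of duplicate plates.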

NCI-H2405 = tested on: NCI-H2405
Summary of the method: as §1

UMC-11 = tested on: UMC-11
Summary of the method: as §1

H3255 = tested on: H3255
Summary of the method: as §1

NCI-H596 = tested on: NCI-H596
Summary of the method: as §1

NCI-H1437 = tested on: NCI-H1437
Summary of the method: as §1

HCC-366 = tested on: HCC-366
Summary of the method: as §1

LXF-289 = tested on: LXF-289
Summary of the method: as §1

NCI-H3122 = tested on: NCI-H3122
Summary of the method: as §1

NCI-H1915 = tested on: NCI-H1915
Summary of the method: as §1

PC-14 = tested on: PC-14
Summary of the method: as §1

HCC-15 = tested on: HCC-15
Summary of the method: as §1

A-427 = tested on: A-427
Summary of the method: as §1

NCI-H460 = tested on: NCI-H460
Summary of the method: as §1

NCI-H2009 = tested on: NCI-H2009
Summary of the method: as §1

NCI-H1755 = tested on: NCI-H1755
Summary of the method: as §1

PC-3 [JPC-3] = tested on: PC-3 [JPC-3]
Summary of the method: as §1

NCI-H650 = tested on: NCI-H650
Summary of the method: as §1

SK-LU-1 = tested on: SK-LU-1
Summary of the method: as §1

NCI-H2023 = tested on: NCI-H2023
Summary of the method: as §1

NCI-H1975 = tested on: NCI-H1975
Summary of the method: as §1

HARA = tested on: HARA
Summary of the method: as §1

## Cc1cnc(-c2cnc(NCCNc3ccc(C#N)cn3)nc2-c2ccc(Cl)cc2Cl)[nH]1 + C[C@@H](Oc1cc(-c2cnn(C3CCNCC3)c2)cnc1N)c1c(Cl)ccc(F)c1Cl [Crizotinib] (partner 1 µM)
NCI-H441; first compound 0.08 µM
  relative viability: 0.845
NCI-H441; first compound 0.253 µM
  relative viability: 0.528
NCI-H441; first compound 0.8 µM
  relative viability: 0.713
NCI-H441; first compound 2.53 µM
  relative viability: 0.791
NCI-H2405; first compound 0.08 µM
  relative viability: 0.883
NCI-H2405; first compound 0.253 µM
  relative viability: 0.774
NCI-H2405; first compound 0.8 µM
  relative viability: 0.797
NCI-H2405; first compound 2.53 µM
  relative viability: 0.809
UMC-11; first compound 0.08 µM
  relative viability: 0.82
UMC-11; first compound 0.253 µM
  relative viability: 0.551
UMC-11; first compound 0.8 µM
  relative viability: 0.598
UMC-11; first compound 2.53 µM
  relative viability: 0.602
H3255; first compound 0.08 µM
  relative viability: 1.03
H3255; first compound 0.253 µM
  relative viability: 0.809
H3255; first compound 0.8 µM
  relative viability: 0.853
H3255; first compound 2.53 µM
  relative viability: 0.79
NCI-H596; first compound 0.08 µM
  relative viability: 0.921
NCI-H596; first compound 0.253 µM
  relative viability: 0.906
NCI-H596; first compound 0.8 µM
  relative viability: 0.968
NCI-H596; first compound 2.53 µM
  relative viability: 0.927
NCI-H1437; first compound 0.08 µM
  relative viability: 0.912
NCI-H1437; first compound 0.253 µM
  relative viability: 0.943
NCI-H1437; first compound 0.8 µM
  relative viability: 0.944
NCI-H1437; first compound 2.53 µM
  relative viability: 0.981
HCC-366; first compound 0.08 µM
  relative viability: 0.654
HCC-366; first compound 0.253 µM
  relative viability: 0.408
HCC-366; first compound 0.8 µM
  relative viability: 0.534
HCC-366; first compound 2.53 µM
  relative viability: 0.422
LXF-289; first compound 0.08 µM
  relative viability: 0.852
LXF-289; first compound 0.253 µM
  relative viability: 0.796
LXF-289; first compound 0.8 µM
  relative viability: 0.839
LXF-289; first compound 2.53 µM
  relative viability: 0.87
NCI-H3122; first compound 0.08 µM
  relative viability: 0.285
NCI-H3122; first compound 0.253 µM
  relative viability: 0.319
NCI-H3122; first compound 0.8 µM
  relative viability: 0.253
NCI-H3122; first compound 2.53 µM
  relative viability: 0.304
NCI-H1915; first compound 0.08 µM
  relative viability: 0.85
NCI-H1915; first compound 0.8 µM
  relative viability: 0.896
NCI-H1915; first compound 2.53 µM
  relative viability: 0.931
PC-14; first compound 0.08 µM
  relative viability: 0.911
PC-14; first compound 0.253 µM
  relative viability: 0.811
PC-14; first compound 0.8 µM
  relative viability: 0.896
PC-14; first compound 2.53 µM
  relative viability: 0.807
HCC-15; first compound 0.08 µM
  relative viability: 0.781
HCC-15; first compound 0.253 µM
  relative viability: 0.659
HCC-15; first compound 0.8 µM
  relative viability: 0.799
HCC-15; first compound 2.53 µM
  relative viability: 0.803
A-427; first compound 0.08 µM
  relative viability: 0.911
A-427; first compound 0.253 µM
  relative viability: 0.972
A-427; first compound 0.8 µM
  relative viability: 0.882
A-427; first compound 2.53 µM
  relative viability: 0.826
NCI-H460; first compound 0.08 µM
  relative viability: 1.03
NCI-H460; first compound 0.253 µM
  relative viability: 0.857
NCI-H460; first compound 0.8 µM
  relative viability: 0.858
NCI-H460; first compound 2.53 µM
  relative viability: 0.776
NCI-H2009; first compound 0.08 µM
  relative viability: 1.09
NCI-H2009; first compound 0.253 µM
  relative viability: 0.958
NCI-H2009; first compound 0.8 µM
  relative viability: 1
NCI-H2009; first compound 2.53 µM
  relative viability: 0.892
NCI-H1755; first compound 0.08 µM
  relative viability: 0.853
NCI-H1755; first compound 0.253 µM
  relative viability: 0.856
NCI-H1755; first compound 0.8 µM
  relative viability: 0.824
NCI-H1755; first compound 2.53 µM
  relative viability: 0.804
PC-3 [JPC-3]; first compound 0.08 µM
  relative viability: 0.936
PC-3 [JPC-3]; first compound 0.253 µM
  relative viability: 0.894
PC-3 [JPC-3]; first compound 0.8 µM
  relative viability: 0.999
PC-3 [JPC-3]; first compound 2.53 µM
  relative viability: 0.953
NCI-H650; first compound 0.08 µM
  relative viability: 0.786
NCI-H650; first compound 0.253 µM
  relative viability: 0.676
NCI-H650; first compound 0.8 µM
  relative viability: 0.673
NCI-H650; first compound 2.53 µM
  relative viability: 0.611
SK-LU-1; first compound 0.08 µM
  relative viability: 1.01
SK-LU-1; first compound 0.253 µM
  relative viability: 0.918
SK-LU-1; first compound 0.8 µM
  relative viability: 1.17
SK-LU-1; first compound 2.53 µM
  relative viability: 1.3
NCI-H2023; first compound 0.08 µM
  relative viability: 0.775
NCI-H2023; first compound 0.253 µM
  relative viability: 0.696
NCI-H2023; first compound 0.8 µM
  relative viability: 0.664
NCI-H2023; first compound 2.53 µM
  relative viability: 0.688
NCI-H1975; first compound 0.08 µM
  relative viability: 0.968
NCI-H1975; first compound 0.253 µM
  relative viability: 0.907
NCI-H1975; first compound 0.8 µM
  relative viability: 0.906
NCI-H1975; first compound 2.53 µM
  relative viability: 0.569
HARA; first compound 0.08 µM
  relative viability: 1.02
HARA; first compound 0.253 µM
  relative viability: 0.956
HARA; first compound 0.8 µM
  relative viability: 1.06
HARA; first compound 2.53 µM
  relative viability: 1.12
